Experimental data taken from US9616062B2, “Cyclin dependent kinase inhibitors and methods of use” (priority 2009, dated 2017).

Test system: RB-deficient small cell lung cancer cell lines (H69, H82, H209, H345)
Assay: SCLC cell proliferation, WST-1, RB-deficient lines
Assay type: cell-based
Conditions: 100 nM, all four RB-deficient cell lines
Description: FIG. 8: CDK4/6 inhibition potentiates proliferation of Rb deficient cells. […] Cell proliferation was assessed using WST-1 reagent. Each data point represents the mean of four replicates +/−SEM. CDK4/6 inhibition increases cell proliferation of RB-deficient cell lines.
Primary normal human renal proximal epithelial cells (American Type Culture Collection (ATCC), Manassas, Va., United States of America) were cultured in renal epithelial cell basal media supplemented with renal epithelial cell growth kit according to the manufacturer's recommendations. […] For the γH2AX assay, cells were fixed, permeabilized, and stained with anti-γH2AX as per γH2AX Flow Kit (Millipore, Billerica, Mass., United States of America). γH2AX levels were assessed by flow cytometry. Cell proliferation was assessed by seeding 1×10^3 cells per well in a 96-well tissue culture plate in 100 μL of growth medium. […] At the end of the recovery period, cell number was quantified using CellTiter-Glo® (Promega, Fitchburg, Wis., United States of America) or WST-1 reagent (TaKaRa Bio USA, Madison, Wis., United States of America). Cellular cytotoxicity was assessed using the TOXILIGHT™ Bioassay kit (Lonza, Basel, Switzerland) which measures cytolysis by quantifying the release of Adenylate Kinase into the culture media. […] 100 μL of TOXILIGHT™ reagent is added and incubated for 5 minutes and read in a luminometer at 1 second/well. […]

## CC(=O)c1c(C)c2cnc(Nc3ccc(N4CCNCC4)cn3)nc2n(C2CCCC2)c1=O [PD0332991, 6-acetyl-8-cyclopentyl-5-methyl-2-(5-piperazin-1-yl-pyridin-2-ylamino)-8H-pyrido-[2,3-d]-pyrimidin-7-one]
  cell proliferation (WST-1) vs DMSO: increased
